Data from patent publication US11472778B2, “Hepatitis C virus NS3/4A protease inhibitors” (priority 2017, dated 2022).
Where two headings read alike, the source gives them in different places.

How the values were obtained:
Format in all cases: biochemical, Hepatitis C virus
[1] = molecular target: T1, GT1a D168A NS3/4A protease (UniProt P27958, D1194A, species not given)
T1 construct: rows headed: Ki (nM) D168A; Ki D168A; other: D168A variant
Outline: (§1)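 Enzyme (GT1a wild type or D168A mutant, 2 nM) was preincubated with inhibitor dilutions for 1 h at room temperature in pH 7.5 Tris buffer with glycerol, DTT, LDAO and 4% DMSO.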

[2] = molecular target: GT1a D168A NS3/4A protease; settings: fold change in Ki, D168A relative to WT
Outline: as §1

[3] = molecular target: T2, wild-type GT1a NS3/4A protease (UniProt P27958)
T2 construct: Ki WT; other: wild-type HCV NS3/4A protease
Outline: as §1

[4] = molecular target: GT1a R155K NS3/4A protease (UniProt P27958, R1181K, species not given)
Protocol: (§2) For each assay, 2 nM of NS3/4A protease (GT1a, R155K and D168A) was pre-incubated at room temperature for 1 h with increasing concentration of inhibitors in assay buffer (50 mM Tris, 5% glycerol, 10 mM DTT, 0.6 mM LDAO, and 4% dimethyl sulfoxide, pH 7.5). Inhibition assays were performed in non-binding surface 96-well black half-area plates (Corning) in a reaction volume of 60 μL. […] Three independent data sets were collected for each inhibitor with each protease construct. […] Gibbs free energy of binding was calculated using the following equation: ΔG=RTlnKi

[5] = molecular target: GT1a R155K NS3/4A protease; settings: fold change in Ki, R155K relative to WT
Protocol: as §2

[6] = read-out: Ki (nM) D168A, Table 8, linear inhibitors
[7] = read-out: Ki D168A, D168A variant
[8] = read-out: Ki (nM) WT, Table 8, linear inhibitors
[9] = read-out: Ki WT, wild-type HCV NS3/4A protease
[10] = read-out: Ki (nM) R155K, Table 8, linear inhibitors
[11] = read-out: Ki R155K, R155K variant

C=C[C@@H]1C[C@]1(NC(=O)[C@@H]1C[C@@H](Oc2nc3cc(OC)ccc3nc2C)CN1C(=O)[C@@H](NC(=O)OC(C)(C)C)C(C)(C)C)C(=O)NS(=O)(=O)C1CC1 [Compound 9b, tert-Butyl ((S)-1-((2S,4R)-2-(((1R,2S)-1-((cyclopropylsulfonyl)carbamoyl)-2-vinylcyclopropyl)carbamoyl)-4-((7-methoxy-3-methylquinoxalin-2-yl)oxy)pyrrolidin-1-yl)-3,3-dimethyl-1-oxobutan-2-yl)carbamate]
Ki [1, 6]: 290 ± 24 nM
Ki [1, 7]: 290 ± 24 nM
Ki D168A (fold change) [2]: 16
Ki [3, 8]: 18 ± 1.6 nM
Ki [3, 9]: 18 ± 1.6 nM
Ki [4, 10]: 8.5 ± 2.1 nM
Ki [4, 11]: 8.5 ± 2.1 nM
Ki R155K (fold change) [5]: 0.5

C=C[C@@H]1C[C@]1(NC(=O)[C@@H]1C[C@@H](Oc2nc3cc(OC)ccc3nc2C(C)C)CN1C(=O)[C@@H](NC(=O)OC(C)(C)C)C(C)(C)C)C(=O)NS(=O)(=O)C1CC1 [Compound 9c, tert-Butyl ((S)-1-((2S,4R)-2-(((1R,2S)-1-((cyclopropylsulfonyl)carbamoyl)-2-vinylcyclopropyl)carbamoyl)-4-((3-isopropyl-7-methoxyquinoxalin-2-yl)oxy)pyrrolidin-1-yl)-3,3-dimethyl-1-oxobutan-2-yl)carbamate]
Ki [1, 6]: 1090 ± 137 nM
Ki [1, 7]: 1090 ± 137 nM
Ki D168A (fold change) [2]: 34
Ki [3, 8]: 32 ± 5.1 nM
Ki [3, 9]: 32 ± 5.1 nM
Ki [4, 10]: 49 ± 11 nM
Ki [4, 11]: 49 ± 11 nM
Ki R155K (fold change) [5]: 1.5

C=C[C@@H]1C[C@]1(NC(=O)[C@@H]1C[C@@H](Oc2nc3cc(OC)ccc3nc2C(F)(F)F)CN1C(=O)[C@@H](NC(=O)OC(C)(C)C)C(C)(C)C)C(=O)NS(=O)(=O)C1CC1 [Compound 9e, tert-Butyl ((S)-1-((2S,4R)-2-(((1R,2S)-1-((cyclopropylsulfonyl)carbamoyl)-2-vinylcyclopropyl)carbamoyl)-4-((7-methoxy-3-(trifluoromethyl)quinoxalin-2-yl)oxy)pyrrolidin-1-yl)-3,3-dimethyl-1-oxobutan-2-yl)carbamate]
Ki [1, 6]: 723 ± 80 nM
Ki [1, 7]: 723 ± 80 nM
Ki D168A (fold change) [2]: 8
Ki [3, 8]: 87 ± 18 nM
Ki [3, 9]: 87 ± 18 nM
Ki [4, 10]: 24 ± 3.3 nM
Ki [4, 11]: 24 ± 3.3 nM
Ki R155K (fold change) [5]: 0.3

C=C[C@@H]1C[C@]1(NC(=O)[C@@H]1C[C@@H](Oc2nc3cc(OC)ccc3nc2CC)CN1C(=O)[C@@H](NC(=O)OC(C)(C)C)C(C)(C)C)C(=O)NS(=O)(=O)C1(C)CC1 [Compound 10a, tert-Butyl ((S)-1-((2S,4R)-4-((3-ethyl-7-methoxyquinoxalin-2-yl)oxy)-2-(((1R,2S)-1-(((1-methylcyclopropyl)sulfonyl)carbamoyl)-2-vinylcyclopropyl)carbamoyl)pyrrolidin-1-yl)-3,3-dimethyl-1-oxobutan-2-yl)carbamate]
Ki [1, 6]: 385 ± 31 nM
Ki [1, 7]: 385 ± 31 nM
Ki D168A (fold change) [2]: 24
Ki [3, 8]: 16 ± 1.3 nM
Ki [3, 9]: 16 ± 1.3 nM
Ki [4, 10]: 14 ± 1.1 nM
Ki [4, 11]: 14 ± 1.1 nM
Ki R155K (fold change) [5]: 0.9

C=C[C@@H]1C[C@]1(NC(=O)[C@@H]1C[C@@H](Oc2nc3cc(OC)ccc3nc2C)CN1C(=O)[C@@H](NC(=O)OC(C)(C)C)C(C)(C)C)C(=O)NS(=O)(=O)C1(C)CC1 [Compound 10b, tert-Butyl ((S)-1-((2S,4R)-4-((7-methoxy-3-methylquinoxalin-2-yl)oxy)-2-(((1R,2S)-1-(((1-methylcyclopropyl)sulfonyl)carbamoyl)-2-vinylcyclopropyl)carbamoyl)pyrrolidin-1-yl)-3,3-dimethyl-1-oxobutan-2-yl)carbamate]
Ki [1, 6]: 265 ± 26 nM
Ki [1, 7]: 265 ± 26 nM
Ki D168A (fold change) [2]: 19
Ki [3, 8]: 14 ± 2.1 nM
Ki [3, 9]: 14 ± 2.1 nM
Ki [4, 10]: 14 ± 1.7 nM
Ki [4, 11]: 14 ± 1.7 nM
Ki R155K (fold change) [5]: 1.0

C=C[C@@H]1C[C@]1(NC(=O)[C@@H]1C[C@@H](Oc2nc3cc(OC)ccc3nc2C(C)C)CN1C(=O)[C@@H](NC(=O)OC(C)(C)C)C(C)(C)C)C(=O)NS(=O)(=O)C1(C)CC1 [Compound 10c, tert-Butyl ((S)-1-((2S,4R)-4-((3-isopropyl-7-methoxyquinoxalin-2-yl)oxy)-2-(((1R,2S)-1-(((1-methylcyclopropyl)sulfonyl)carbamoyl)-2-vinylcyclopropyl)carbamoyl)pyrrolidin-1-yl)-3,3-dimethyl-1-oxobutan-2-yl)carbamate]
Ki [1, 6]: 1180 ± 170 nM
Ki [1, 7]: 1180 ± 170 nM
Ki D168A (fold change) [2]: 41
Ki [3, 8]: 29 ± 9.4 nM
Ki [3, 9]: 29 ± 9.4 nM
Ki [4, 10]: 27 ± 5.6 nM
Ki [4, 11]: 27 ± 5.6 nM
Ki R155K (fold change) [5]: 0.9

C=C[C@@H]1C[C@]1(NC(=O)[C@@H]1C[C@@H](Oc2nc3cc(OC)ccc3nc2C(F)(F)F)CN1C(=O)[C@@H](NC(=O)OC(C)(C)C)C(C)(C)C)C(=O)NS(=O)(=O)C1(C)CC1 [Compound 10e, tert-Butyl ((S)-1-((2S,4R)-4-((7-methoxy-3-(trifluoromethyl)quinoxalin-2-yl)oxy)-2-(((1R,2S)-1-(((1-methylcyclopropyl)sulfonyl)carbamoyl)-2-vinylcyclopropyl)carbamoyl)pyrrolidin-1-yl)-3,3-dimethyl-1-oxobutan-2-yl)carbamate]
Ki [1, 6]: 513 ± 50 nM
Ki [1, 7]: 513 ± 50 nM
Ki D168A (fold change) [2]: 11
Ki [3, 8]: 46 ± 9.6 nM
Ki [3, 9]: 46 ± 9.6 nM
Ki [4, 10]: 12 ± 1.7 nM
Ki [4, 11]: 12 ± 1.7 nM
Ki R155K (fold change) [5]: 0.3

C=C[C@@H]1C[C@]1(NC(=O)[C@@H]1C[C@@H](Oc2nc3cc(OC)ccc3nc2CC)CN1C(=O)[C@@H](NC(=O)OC1CCCC1)C(C)(C)C)C(=O)NS(=O)(=O)C1CC1 [Compound 11a, Cyclopentyl ((S)-1-((2S,4R)-2-(((1R,2S)-1-((cyclopropylsulfonyl)carbamoyl)-2-vinylcyclopropyl)carbamoyl)-4-((3-ethyl-7-methoxyquinoxalin-2-yl)oxy)pyrrolidin-1-yl)-3,3-dimethyl-1-oxobutan-2-yl)carbamate]
Ki [1, 6]: 350 ± 30 nM
Ki [1, 7]: 350 ± 30 nM
Ki D168A (fold change) [2]: 36
Ki [3, 8]: 9.8 ± 2 nM
Ki [3, 9]: 9.8 ± 2 nM
Ki [4, 10]: 15 ± 2.2 nM
Ki [4, 11]: 15 ± 2.2 nM
Ki R155K (fold change) [5]: 1.5

C=C[C@@H]1C[C@]1(NC(=O)[C@@H]1C[C@@H](Oc2nc3cc(OC)ccc3nc2C(C)C)CN1C(=O)[C@@H](NC(=O)OC1CCCC1)C(C)(C)C)C(=O)NS(=O)(=O)C1CC1 [Compound 11c, Cyclopentyl ((S)-1-((2S,4R)-2-(((1R,2S)-1-((cyclopropylsulfonyl)carbamoyl)-2-vinylcyclopropyl)carbamoyl)-4-((3-isopropyl-7-methoxyquinoxalin-2-yl)oxy)pyrrolidin-1-yl)-3,3-dimethyl-1-oxobutan-2-yl)carbamate]
Ki [1, 6]: 985 ± 106 nM
Ki [1, 7]: 985 ± 106 nM
Ki D168A (fold change) [2]: 58
Ki [3, 8]: 17 ± 3.2 nM
Ki [3, 9]: 17 ± 3.2 nM
Ki [4, 10]: 55 ± 11 nM
Ki [4, 11]: 55 ± 11 nM
Ki R155K (fold change) [5]: 3

C=C[C@@H]1C[C@]1(NC(=O)[C@@H]1C[C@@H](Oc2nc3cc(OC)ccc3nc2C(F)(F)F)CN1C(=O)[C@@H](NC(=O)OC1CCCC1)C(C)(C)C)C(=O)NS(=O)(=O)C1CC1 [Compound 11e, Cyclopentyl ((S)-1-((2S,4R)-2-(((1R,2S)-1-((cyclopropylsulfonyl)carbamoyl)-2-vinylcyclopropyl)carbamoyl)-4-((7-methoxy-3-(trifluoromethyl)quinoxalin-2-yl)oxy)pyrrolidin-1-yl)-3,3-dimethyl-1-oxobutan-2-yl)carbamate]
Ki [1, 6]: 703 ± 63 nM
Ki [1, 7]: 703 ± 63 nM
Ki D168A (fold change) [2]: 21
Ki [3, 8]: 34 ± 8.3 nM
Ki [3, 9]: 34 ± 8.3 nM
Ki [4, 10]: 26 ± 7.7 nM
Ki [4, 11]: 26 ± 7.7 nM
Ki R155K (fold change) [5]: 0.8
